Data: patent publication US6586475B1, “β-amyloid protein production/secretion inhibitors” (Takeda Chemical Industries, Ltd., priority 1998, dated 2003)

Test system: amyloid-β protein Aβ1-42
Assay: Inhibition of production and/or secretion of Aβ1-42 in IMR-32 cells (EIA of supernatant)
Assay type: cell-based
Conditions: test compound 10 μM; human neuroblastoma IMR-32 cells, 24 hours; percentage relative to the control
Experimental: (§1) Compounds of the present invention were tested for an inhibitory activity of the production and/or secretion of amyloid-β protein (references: Science, 264, 1336 (1994) and Biochemistry, 34, 10272 (1995)).
(§2) Human neuroblastoma IMR-32 cells: purchased from American Type Culture Center.
(§3) Standard Aβ1-40 and Aβ1-42: purchased from Bachem Co.
(§4) IMR-32 cells were cultivated in a flask (Falcon, 750 ml) containing 10% FCS/DMEM medium, in an atmosphere of 10% CO2/90% air, at 37° C. to be in confluence. The cultured cells were seeded into a 48-well plate in a density of 2.5×10^5 cells/well, and incubated therein for 3 days under the same conditions as above. Then, the culture medium was removed through suction. […]
(§5) BAN-50 antibody or BNT-77 antibody was used as the primary antibody. […] To determined the Aβ1-42, BC-05 was used as the secondary antibody. […]
(§6) The plate was washed three times with PBS, and 100 μl of an HRP-labeled secondary antibody (BA-27 antibody or BC-o5 antibody labeled with HRP: horseradis peroxidase) as dissolved in a buffer for secondary reaction (20 mM phosphate buffer, pH 7.0; 400 mM NaCl; 2 mM EDTA; 1% BSA) was added thereto. […] Then, using a plate reader (MTP-32 Microplate Reader, by Corona Co.), the sample on the plate was subjected to calorimetric determination (at 450 nm). […]

Structure (SMILES) | Aβ1-42 (%)
O=C(NCCN1CCCCC1)c1ccc(OCc2ccc(-c3ccccc3)cc2)cc1 [Example 8, 4-(4-Biphenylylmethoxy)-N-(2-piperidinoethyl)benzamide] | 63

Test system: not listed separately
Assay: Penetration in brain
Conditions: in vivo

Structure (SMILES) | penetration in brain
O=C(NCCN1CCCCC1)c1ccc(OCc2ccc(-c3ccccc3)cc2)cc1 [Example 8, 4-(4-Biphenylylmethoxy)-N-(2-piperidinoethyl)benzamide] | excellent penetration in brain

Test system: not given
Assay: not given
Conditions: not given

Structure (SMILES) | melting point
CCCN(CCC)CCc1ccccc1OCc1ccc2ccccc2c1.Cl | 146 to 147 °C
O=C(NCCN1CCCCC1)c1ccc(NC(=O)c2ccc(-c3ccccc3)cc2)cc1 [Example 26, N-[4-{[2-(Piperidinoethyl)amino]carbonyl}phenyl](4-biphenylyl)carboxamide] | 247 to 252 °C (dec.)
CCCN(CCC)CCc1cccc(OCc2cccc3ccccc23)c1.Cl | 140 to 142 °C
O=C(NCCN1CCCC1)c1ccc(NC(=O)c2ccc(-c3ccccc3)cc2)cc1 [Example 27] | 241 to 245 °C (dec.)
CCCN(CCC)CCc1ccc(OCc2ccc(Cl)cc2Cl)cc1.Cl | 122 to 123 °C
CCCN(CCC)CCc1cccc(OCc2ccc3ccccc3c2)c1.Cl | 115 to 116 °C
CCCN(CCC)CCc1cccc(OCc2ccc(-c3ccccc3)cc2)c1.Cl | 108 to 110 °C
CCCN(CCC)CCc1ccc(OCc2ccc3ccccc3c2)cc1.Cl | 113 to 115 °C
CCCN(CCC)CCc1ccc(OCc2ccc(-c3ccccc3)cc2)cc1.Cl | 149 to 150 °C
CCCN(CCC)CCc1cccc(OCc2ccc(Cl)cc2Cl)c1.Cl | 76 to 78 °C

Test system: amyloid-β protein Aβ1-40
Assay: Inhibition of production and/or secretion of Aβ1-40 in IMR-32 cells (EIA of supernatant)
Assay type: cell-based
Conditions: test compound 10 μM; human neuroblastoma IMR-32 cells, 24 hours; percentage relative to the control
Experimental: as §1, §2, §3, §4, §5, §6

Structure (SMILES) | Aβ1-40 (%)
O=C(NCCN1CCCCC1)c1ccc(OCc2ccc(-c3ccccc3)cc2)cc1 [Example 8, 4-(4-Biphenylylmethoxy)-N-(2-piperidinoethyl)benzamide] | 39
